# Data from patent US20060057665A1, “Galectin-14 therapeutic molecule and uses thereof” (The University of Melbourne, priority 2001, published 2006).
# Tests used:
# GST-galectin-14 = assay: Saccharide inhibition of GST-galectin-14 induced hemagglutination; type: cell-based, rabbit; conditions: 0.28 μM GST-galectin-14; sugars 0.78-100 mM
# Experimental: FIG. 14 is an image of a hemagglutination assay using GST-galectin-14 fusion protein. Agglutination of rabbit erythrocytes was assayed in a 96-well microtiter plate. Assays were conducted in the presence (2, 3, 4, and 5) or absence (1 and 6) of 0.28 μM recombinant GST-galectin-14, the minimum concentration to induce agglutination. Increasing concentrations (0.78-100 mM) of lactose (2), galactose (3), or N-acetyl-glucosamine (4) were added to inhibit agglutination. In the presence of GST-galectin-14 without sugar (5) the rabbit erythrocytes form a “mat” at the bottom of the wells. The assay buffer DES alone (1) and 3 μM rGST (6) were included as negative controls. Trypsin-treated, glutaraldehyde fixed rabbit erythrocytes were prepared and tested in an agglutination assay according to the method of Nowak et al. (Nowak et al. (1976) supra). Agglutination assays were performed in 96-well V-shaped microtiter plates with serial 2-fold dilutions of samples in 25 μl of DES (0.15 M NaCl, 2 mM EDTA, 2 mM dithiothreitol), 50 μl of 0.5% (w/v) BSA in 0.15 M NaCl and 25 μl of a 4% suspension of rabbit erythrocytes. The plates were shaken vigorously for 30 s, and agglutination was read after the plates had stood at room temperature for 1 h. Agglutinated erythrocytes formed a “mat” on the bottom of the well. For assessment of the inhibitory effects of saccharides, lactose, galactose, and N-acetyl-glucosamine were serially diluted in 25 μl of 0.15 M NaCl prior to the addition of recombinant protein in DES, 25 μl of 1% (w/v) BSA in 0.15 M NaCl, and 4% erythrocytes in PBS. The minimum concentration of GST-galectin-14 that gave mat formation (0.28 μM) was used in the saccharide inhibition assay. For assessment of the effects of antibody on GST-galectin-14 hemagglutination, ascites and supernatants from monoclonal antibodies and polyclonal rabbit sera all raised to recombinant galectin-14 were serially diluted in 25 μl of 0.15 M NaCl prior to the addition of recombinant protein in DES, 25 μl of 1% (w/v) BSA in 0.15 M NaCl, and 4% erythrocytes in PBS. […]
# [1] = test system: GST-galectin-14 binding to laminin; assay: Lactose inhibition of GST-galectin-14 binding to immobilised laminin; conditions: 0.3 M lactose added
# Experimental: FIG. 17 is an image of the saturation binding of GST-galectin-14 fusion protein to immobilised laminin. Laminin binding of GST-galectin-14 fusion protein was assayed using a solid-phase binding assay in a 96-well microtitre plate. Serial dilutions of GST-galectin-14 (▪) and GST (▴) were added to microtitre wells containing laminin. 0.3 M Lactose was added to GST-galectin-14 to inhibit binding (◯). The level of bound protein was monitored by the binding of rabbit anti-GST HRP antibody developed with TMB substrate and detected by a change in absorbance at 450 nm. Laminin binding activity was measured according to the method of Mazurek et al. with some modification. Briefly, the wells of a 96-well microtitre plate were coated with laminin from Engelbreth-Holm-Swarm murine sarcoma (Sigma) at 1 μg/100 μl of carbonate coating buffer (15 mM Na2CO3, 35 mM NaHCO3, pH 9.6) per well overnight at 4° C. Non-specific binding sites were blocked with 200 μl of 0.5% Tween 20 in PBS for 1 h. Plates were washed 3 times in 0.05% Tween 20 PBS and incubated with 50 μl serial dilutions of GST-galectin-14 or GST alone, diluted in 0.5% Tween 20 PBS, for 1.5 h at 37° C. Control wells contained 0.3 M lactose. […] The reaction was terminated with 100 μl 2 M sulphuric acid and the colour change monitored using a dual wavelength mode plate reader (Bio-tek instruments) at 450 nm, ref 690 nm.
# rabbit erythrocytes = assay: Hemagglutination assay on trypsin-treated, glutaraldehyde fixed rabbit erythrocytes; type: cell-based; conditions: negative control protein, 3 μM rGST
# Experimental: Trypsin-treated, glutaraldehyde fixed rabbit erythrocytes were prepared and tested in an agglutination assay according to the method of Nowak et al. (Nowak et al. (1976) supra). Agglutination assays were performed in 96-well V-shaped microtiter plates with serial 2-fold dilutions of samples in 25 μl of DES (0.15 M NaCl, 2 mM EDTA, 2 mM dithiothreitol), 50 μl of 0.5% (w/v) BSA in 0.15 M NaCl and 25 μl of a 4% suspension of rabbit erythrocytes. The plates were shaken vigorously for 30 s, and agglutination was read after the plates had stood at room temperature for 1 h. Agglutinated erythrocytes formed a “mat” on the bottom of the well. For assessment of the inhibitory effects of saccharides, lactose, galactose, and N-acetyl-glucosamine were serially diluted in 25 μl of 0.15 M NaCl prior to the addition of recombinant protein in DES, 25 μl of 1% (w/v) BSA in 0.15 M NaCl, and 4% erythrocytes in PBS. The minimum concentration of GST-galectin-14 that gave mat formation (0.28 μM) was used in the saccharide inhibition assay. For assessment of the effects of antibody on GST-galectin-14 hemagglutination, ascites and supernatants from monoclonal antibodies and polyclonal rabbit sera all raised to recombinant galectin-14 were serially diluted in 25 μl of 0.15 M NaCl prior to the addition of recombinant protein in DES, 25 μl of 1% (w/v) BSA in 0.15 M NaCl, and 4% erythrocytes in PBS. […]
Compound,lowest sugar concentration at which inhibition of agglutination becomes evident (GST-galectin-14),effect on binding of GST-galectin-14 to laminin [1],induction of hemagglutination (rabbit erythrocytes)
CC(=O)N[C@H]1C(O)O[C@H](CO)[C@@H](O)[C@@H]1O (some centres unmarked) [N-acetyl-glucosamine],50 mM,,
O=C[C@H](O)[C@@H](O)[C@@H](O)[C@H](O)CO [galactose],12.5 mM,,
OC[C@H]1O[C@@H](O[C@H]2[C@H](O)[C@@H](O)C(O)O[C@@H]2CO)[C@H](O)[C@@H](O)[C@H]1O (some centres unmarked) [lactose],0.78 mM,reduced to the level of the control,
"GST: GST moiety alone, used as negative control protein [reference compound]",,,does not
